# Experiments:
# [1] = tested on: MK-801-treated Wistar rats; experiment: MK-801-induced hyperactivity in rats (Actometer); format: in vivo, rat
# Procedure: (§1) MK-801 (dizocilpine, (+)-5-methyl-10,11-dihydro-5H-dibenzo-[a,d]-cyclohepten-5,10-imine maleate; Sigma-Aldrich, St. Louis, MO, USA) was dissolved in saline. Compound 62 (LK00764) was dissolved in 10% Tween 80 saline solution. All solutions were made fresh shortly before injections. Drug doses were tested in a pseudo-random order derived from Latin square design with at least 72 h between consecutive tests. All drugs and vehicles were administered intraperitoneally (i.p.) in the volume of 1 mL/kg. Drug doses are reported as salts. Selection of the MK-801 dose (0.2 mg/kg) was based the previous experience with the compound [24]. All locomotor activity tests (duration—60 min) were performed 15 min after the administration of compounds.
# We evaluated locomotor activity of rats in the Actometer apparatus. A detailed description of the apparatus has been presented before. […]
# Glutamate NMDA receptor antagonist-induced hyperactivity in rodents is commonly used as a pharmacological animal model of schizophrenia in the screening of potential antipsychotics. […] Thus, we used MK-801 (0.2 mg/kg, i.p.) treatment to induce hyperactivity in rats and analyzed the effects of compound 62 (LK00764) at doses of 0.3, 1, 3, 5, and 10 mg/kg, i.p. on locomotor activity of MK-801-treated Wistar rats.
# intact Wistar rats = experiment: Spontaneous locomotor activity of intact rats (Actometer); format: in vivo, rat; details: 0.3–10 mg/kg i.p., n = 9
# Procedure: as §1
# (§2) We evaluated locomotor activity of rats in the Actometer apparatus. A detailed description of the apparatus has been presented before. Shortly, each box of the apparatus was equipped by photocell-based infrared sensors to assess horizontal and vertical activity. Wistar rats were tested in the apparatus following a one-week habituation period (baseline period). During this period, the animals were placed in locomotor activity boxes for 60 min per day, 6 days a week to habituate them to the environment. […]
# Next, we analyzed the locomotor effects of compound 62 (LK00764, 0.3–10 mg/kg, i.p.) on the additional group of intact rats (n = 9).
# DAT-KO rats = experiment: Spontaneous locomotor hyperactivity of dopamine transporter knockout (DAT-KO) rats; format: in vivo, rat
# Procedure: as §1
# as §2, with “period).” for “period). During this period, the animals were placed in locomotor activity boxes for 60 min per day, 6 days a week to habituate them to the environment.”
# Animals without DAT have a disrupted re-uptake of dopamine resulting in remarkably elevated extracellular dopamine levels and spontaneous locomotor hyperactivity. […] Thus, we next evaluated the effects of LK00764 (1–10 mg/kg, i.p.) on spontaneous locomotor hyperactivity of DAT-KO rats (n = 9).
# Wistar male rats = experiment: Stress-induced hyperthermia (SIH) test; format: in vivo, rat; details: n = 8
# Procedure: SIH test is commonly used to evaluate the potential anti-anxiety effect of drugs. Thermometry was performed rectally in rats with a BIOSEB thermometer. Eight Wistar male rats were injected i.p. with vehicle or LK00764, dissolved in 10% tween 80 saline solution. Latin square design was used for the experiment. The first measurement was performed directly before the injection and the second measurement was performed 15 min later. The difference between the first and the second temperature was calculated.
# Another behavioral paradigm known to be affected by TAAR1 agonists is the stress-induced hyperthermia test, which is believed to be a sensitive approach to evaluate the anxiolytic action of compounds [10, 42, 39a]. Thus, compound 62 (LK00764) was evaluated in this test at doses of 3 and 5 mg/kg, i.p. (Figure 7). At both doses, this compound was effective in suppressing stress-induced hyperthermia in rats (p < 0.05 and p < 0.001 for 3 and 5 mg/kg, respectively; Dunn’s test).
# TAAR1 = biological target: T1, TAAR1 (Homo sapiens, UniProt Q96RJ0); experiment: BRET-based cellular cAMP (EPAC biosensor) assay of TAAR1 agonism in transfected HEK-293 cells
# T1 sequence (Q96RJ0 1-339): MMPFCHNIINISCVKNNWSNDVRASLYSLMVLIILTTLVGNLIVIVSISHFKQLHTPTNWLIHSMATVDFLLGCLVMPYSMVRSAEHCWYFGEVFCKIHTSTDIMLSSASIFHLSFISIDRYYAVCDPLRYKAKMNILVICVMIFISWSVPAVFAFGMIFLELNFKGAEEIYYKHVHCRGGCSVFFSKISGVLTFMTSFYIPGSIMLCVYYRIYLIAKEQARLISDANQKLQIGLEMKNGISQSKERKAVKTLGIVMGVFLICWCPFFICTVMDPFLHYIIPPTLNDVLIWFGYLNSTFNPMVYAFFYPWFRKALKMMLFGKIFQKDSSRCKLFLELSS
# Procedure: The Bioluminescence Resonance Energy Transfer approach (BRET) has been used for functional activity experiments. HEK-293 cells were transiently transfected with cDNA for TAARs and cAMP BRET biosensor (EPAC) and then plated in a 96-well plate, as described [23]. All compounds were tested at the initial concentration of 10 µM. […] A natural agonist of TAAR1 β-phenylethylamine (β-PEA) was used as a positive control.
smiles,measurement,setting,value
"Cl.NCCc1nnc(-c2ccc(-c3ccc(Cl)cc3)cc2)[nH]1 [Compound 62, 2-(5-(4′-Chloro-(1,1′-biphenyl)-4-yl)-4H-1,2,4-triazol-3-yl)ethan-1-amine Hydrochloride]",effect on MK-801-induced hyperactivity (horizontal and vertical activity),"[1]; 0.3, 1, 3, 5, 10 mg/kg i.p., MK-801 0.2 mg/kg i.p., Friedman test, horizontal p < 0.05, vertical p < 0.01, n = 7",dose-dependently mitigated
same,effect on horizontal and vertical locomotor activity vs vehicle in MK-801-treated rats,"[1]; doses of 5 and 10 mg/kg i.p., Dunnett's test p < 0.05",significant
same,vertical activity of intact rats,intact Wistar rats; Friedman p < 0.001,decreased
same,horizontal activity of intact rats,intact Wistar rats; Friedman p = 0.60,did not affect
same,horizontal and vertical activity of DAT-KO rats,"DAT-KO rats; 1–10 mg/kg i.p., n = 9, Friedman p < 0.05",significant dose-dependent decrease
same,locomotor hyperactivity of DAT-KO rats vs vehicle,"DAT-KO rats; only the highest tested dose, 10 mg/kg i.p., Dunnett's test",significantly (p < 0.05) diminished
same,suppression of stress-induced hyperthermia,"Wistar male rats; 3 mg/kg i.p., p < 0.05 Dunn's test",effective
same,suppression of stress-induced hyperthermia,"Wistar male rats; 5 mg/kg i.p., p < 0.001 Dunn's test",effective
same,melting point,,247 to 249 °C
same,EC50,TAAR1,4 nM
same,potency relative to Ulotaront (times higher),TAAR1,more than 30 times
same,Emax,"TAAR1; HEK293, read-out: Emax: maximum observed activation of TAAR1 relative to that observed for 1 μM of β-PEA",101%
